Source: patent US6441023B1 (American Home Products Corporation, priority 1997, dated 2002)
Where a name gives a salt, the structure may show the parent alone.

Assays:
[1] = molecular target: MMP 13 (Homo sapiens, UniProt P45452); experiment: MMP 13 inhibition (manual); assay type: biochemical; settings: read-out: MMP 13 IC 50
[2] = molecular target: T1, MMP 9 (Homo sapiens, UniProt P14780); experiment: In vitro gelatinase assay (human neutrophil gelatinase B); assay type: biochemical; settings: read-out: MMP 9 IC 50
T1 construct: from tissue; host or cells: human neutrophils
T1 sequence (P14780 94-707): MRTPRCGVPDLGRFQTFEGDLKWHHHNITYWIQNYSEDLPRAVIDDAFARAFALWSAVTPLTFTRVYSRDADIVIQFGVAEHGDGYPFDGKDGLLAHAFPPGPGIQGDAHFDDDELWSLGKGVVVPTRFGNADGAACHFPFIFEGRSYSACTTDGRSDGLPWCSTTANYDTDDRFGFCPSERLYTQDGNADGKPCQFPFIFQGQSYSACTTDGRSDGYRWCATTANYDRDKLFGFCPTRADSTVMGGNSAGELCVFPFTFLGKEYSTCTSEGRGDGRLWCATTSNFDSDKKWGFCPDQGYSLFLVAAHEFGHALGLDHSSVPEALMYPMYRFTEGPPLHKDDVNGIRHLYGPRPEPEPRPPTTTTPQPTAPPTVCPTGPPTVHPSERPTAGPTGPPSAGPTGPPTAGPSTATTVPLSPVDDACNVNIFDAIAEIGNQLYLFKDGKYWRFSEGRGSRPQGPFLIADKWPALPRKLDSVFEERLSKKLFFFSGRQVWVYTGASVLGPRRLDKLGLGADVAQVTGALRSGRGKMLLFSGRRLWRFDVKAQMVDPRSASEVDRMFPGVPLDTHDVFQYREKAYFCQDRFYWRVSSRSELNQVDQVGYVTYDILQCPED
Procedure: The assay is based on the cleavage of the thiopeptide substrate ((Ac-Pro-Leu-Gly(2 mercapto-4 methyl-pentanoyl)-Leu-Gly-OEt), Bachem Bioscience) by the enzyme, gelatinase, releasing the substrate product which reacts calorimetrically with DTNB ((5,5′-dithio-bis(2-nitro-benzoic acid)). The enzyme activity is measured by the rate of the color increase.
The thiopeptide substrate is made up fresh as a 20 mM stock in 100% DMSO and the DTNB is dissolved in 100% DMSO as a 100 mM stock and stored in dark at room temperature. Both the substrate and DTNB are diluted together to 1 mM with substrate buffer (50 mM HEPES pH 7.5, 5 mM CaCl2) before use. The stock of human neutrophil gelatinase B is diluted with assay buffer (50 mnM HEPES pH 7.5, 5 mM CaCl2, 0.02% Brij) to a final concentration of 0.15 mnM.
The increase in OD405 is plotted and the slope of the line is calculated which represents the reaction rate.

[3] = molecular target: T2, MMP 1 (Homo sapiens, UniProt P03956); experiment: In vitro collagenase assay (human recombinant fibroblast collagenase); assay type: biochemical; settings: read-out: MMP 1 IC 50
T2 construct: human recombinant fibroblast collagenase (truncated, mw=18,828, WAR, Radnor)
T2 sequence (P03956 100-269 limits assumed): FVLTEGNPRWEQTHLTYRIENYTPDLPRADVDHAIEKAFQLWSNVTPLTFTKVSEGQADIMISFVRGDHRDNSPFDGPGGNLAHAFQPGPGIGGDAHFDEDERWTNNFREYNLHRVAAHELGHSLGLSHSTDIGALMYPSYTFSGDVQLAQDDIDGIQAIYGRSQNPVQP
Procedure: The assay is based on the cleavage of a peptide substrate ((Dnp-Pro-Cha-Gly-Cys(iNe)-His-Ala-Lys(NMa)-NH2), Peptide International, Inc.) by collag,enase releasing the fluorescent NMa group which is quantitated on the fluorometer. Dnp quenches the NiIa fluorescence in the intact substrate. […] Substrate is dissolved in methanol and stored frozen in 1 mM aliquots. Collagenase is stored frozen in buffer in 25 µM aliquots. For the assay, substrate is dissolved in HCBC buffer to a final concentration of 10 μM and collagenase to a final concentration of 5 nM. Compounds are dissolved in methanol, DMSO, or HCBC. The methanol and DMSO are diluted in HCBC to <1.0%. Compounds are added to the 96 well plate containing enzyme and the reaction is started by the addition of substrate.
The slope of the line is calculated and represents the reaction rate.
The mean (x±sem) of the control rate is calculated and compared for statistical significance (p<0.05) with drug-treated rates using Dunnett's multiple comparison test.

[4] = molecular target: T3, TACE (Homo sapiens, UniProt P78536); experiment: Procedure for measuring TACE inhibition; assay type: biochemical; settings: for IC50: read-out: TACE IC 50; for inhibition at 10 µM: read-out: TACE % inhibition at 10 micromolar (*)
T3 construct: purchased Immunex
T3 sequence (P78536 215-824): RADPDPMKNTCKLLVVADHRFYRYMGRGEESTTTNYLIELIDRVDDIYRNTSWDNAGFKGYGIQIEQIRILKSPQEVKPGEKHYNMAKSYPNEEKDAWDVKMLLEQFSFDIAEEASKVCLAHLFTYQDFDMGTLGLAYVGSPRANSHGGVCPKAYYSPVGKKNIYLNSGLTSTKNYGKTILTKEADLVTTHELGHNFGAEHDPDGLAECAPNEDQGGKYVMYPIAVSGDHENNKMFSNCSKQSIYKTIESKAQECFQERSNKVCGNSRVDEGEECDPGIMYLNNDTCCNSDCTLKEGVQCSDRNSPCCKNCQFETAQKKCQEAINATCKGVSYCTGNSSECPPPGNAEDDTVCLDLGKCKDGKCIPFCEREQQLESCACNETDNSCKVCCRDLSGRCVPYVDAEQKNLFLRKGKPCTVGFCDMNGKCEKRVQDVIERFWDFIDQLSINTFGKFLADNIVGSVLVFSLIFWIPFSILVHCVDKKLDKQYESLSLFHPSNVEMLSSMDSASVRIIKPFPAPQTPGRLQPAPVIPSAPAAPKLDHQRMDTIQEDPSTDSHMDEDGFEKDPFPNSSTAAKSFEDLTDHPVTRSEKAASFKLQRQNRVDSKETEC
Procedure: Using 96-well black microtiter plates, each well receives a solution composed of 10 μL TACE (Inmunex, final concentration 1 μg/mL), 70 μL Tris buffer, pH 7.4 containing 10% glycerol (final concentration 10 mM), and 10 μL of test compound solution in DMSO ([…], DMSO concentration <1%) and incubated for 10 minutes at room temperature. The reaction is initiated by addition of a fluorescent peptidyl substrate (final concentration 100 μM to each well and then shaking on a shaker for 5 sec.
The reaction is read (excitation 340 nm, emission 420 nm) for 10 min. and the increase in fluorescence over time is plotted as a linear line. The slope of the line is calculated and represents the reaction rate.
The mean (xtsem) of the control rate is calculated and compared for statistical significance (p<0.05) with drug-treated rates using Dunnett's multiple comparison test.

SMILES	melting point	IC50 [1]	IC50 [2]	IC50 [3]	IC50 [4]	inhibition at 10 µM [4]
CCCCOc1ccc(S(=O)(=O)C2(C(=O)NO)CCN(Cc3ccc(OCCN4CCCCC4)cc3)CC2)cc1 (as salt: HCl) [Example 242, 4-(4-Butoxy-benzenesulfonyl)-1-[4-(2-piperidin-1-yl-ethoxy)-benzyl]-piperidine-4-carboxylic acid hydroxyamide]	155 °C					
CCCCOc1ccc(S(=O)(=O)C2(C(=O)NO)CCN(Cc3cccc(OCCN4CCOCC4)c3)CC2)cc1 (as salt: HCl) [Example 243, 4(4-Butoxy-benzenesulfonyl)-1-[3-(2-morpholinyl-1-ylthoxy)-benzyl]-piperidine-4-carboxylic acid hydroxyamide]	123 °C					
CN1CCC(C(=O)NO)(S(=O)(=O)c2ccc(Oc3ccc(Cl)cc3)cc2)CC1 (as salt: HCl) [Example 249, 4-[4-(4-chloro-phenoxy)-benzenesulfonyl]1-methyl-piperidine-4-carboxylic acid hydroxyamide]	52 °C					
CCN1CCC(C(=O)NO)(S(=O)(=O)c2ccc(Oc3ccc(Cl)cc3)cc2)CC1 (as salt: HCl) [Example 250, 4-[4-(4-chloro-phenoxy)-benzenesulfonyl]1-ethyl-piperidine-4-carboxylic acid hydroxyamide]	158 °C					
CCCCOc1ccc(S(=O)(=O)C2(C(=O)NO)CCN(Cc3cccc(OC)c3)CC2)cc1 (as salt: HCl) [Example 260, 4-(4-butoxy-benzenesulfonyl)-1-(3-methoxy-benzyl)-piperidine-4-carboxylic acid hydroxyamide]	137 °C					
COc1ccc(S(=O)(=O)C2(C(=O)NO)CCN(Cc3ccc(-c4ccccn4)cc3)CC2)cc1 (as salt: HCl) [Example 262, 4-(4-methoxy-benzenesulfonyl)-1-(4-pyridin-2-yl-benzyl)-piperidine-4-carboxylic acid hydroxyamide]	214 °C					
CCCCOc1ccc(S(=O)(=O)C2(C(=O)NO)CCN(Cc3ccc(Cl)c(Cl)c3)CC2)cc1 (as salt: HCl) [Example 263, 1-(3,4-Dichlorobenzyl)-4-(4-butoxy-benzenesulfonyl)-piperidine-4-carboxylic acid hydroxyamide]	256.8 °C					
CN1CCC(C(=O)NO)(S(=O)(=O)c2ccc(OCc3ccc(Cl)cc3)cc2)CC1 (as salt: HCl) [Example 264, [4-(4-Chloro-benzyloxy)benzenesulfonyl]-1-methylpiperidine-4-carboxylic acid hydroxamide]	117.8 °C					
Cc1ccc(CN2CCC(C(=O)NO)(S(=O)(=O)c3ccc(OCc4ccc(Cl)cc4)cc3)CC2)cc1 (as salt: HCl) [Example 266, [4-(4-Chloro-benzyloxy)-benzenesulfonyl]-1-(4-methylbenzyl)-piperidine-4-carboxylic acid hydroxamide]	172 °C					
CCCCOc1ccc(S(=O)(=O)C2(C(=O)NO)CCN(Cc3ccc(C)cc3)CC2)cc1 (as salt: HCl) [Example 267, 4-(4-Butoxy-benzenesulfonyl)-1-(4-methylbenzyl)-piperidine-4-carboxylic acid hydroxamide]	137 °C					
CCCCOc1ccc(S(=O)(=O)C2(C(=O)NO)CCN(Cc3ccc(C#N)cc3)CC2)cc1 (as salt: HCl) [Example 268, 4-(4-Butoxy-benzenesulfonyl)-1-(4-cyano-benzyl)-piperidine-4-hydroxamide carboxylic acid hydroxamide]	241.6 °C					
CCCCOc1ccc(S(=O)(=O)C2(C(=O)NO)CCN(Cc3ccncc3)CC2)cc1 (as salt: HCl) [Example 269, 4-(4-Butoxy-benzenesulfonyl)-1-pyridin-4-ylmethyl-piperidine-4-carboxylic acid hydroxamide]	118 °C					
CCCCCC(C(=O)NO)[S+]([O-])c1ccc(OC)cc1 (single isomer, unassigned) [Example 81b, 2S*-(4-methoxy-phenyl-R*-sulfinyl)-heptanoic acid hydroxyamide]		15.7 nM	154 nM	3760 nM	228 nM	
CCN1CCC(C(=O)NO)(S(=O)(=O)c2ccc(Oc3ccc(Cl)cc3)cc2)CC1 [Example 250, 4-[4-(4-chloro-phenoxy)-benzenesulfonyl]1-ethyl-piperidine-4-carboxylic acid hydroxyamide]		0.8 nM	1.6 nM	1720 nM	413 nM	
CCCCN1CCC(C(=O)NO)(S(=O)(=O)c2ccc(Oc3ccc(Cl)cc3)cc2)CC1 [Example 251]		0.9 nM	0.8 nM	1070 nM	301 nM	
CCCCN1CCC(C(=O)NO)(S(=O)(=O)c2ccc(OCCC(C)C)cc2)CC1 [Example 256, 1 -Butyl-4-[4-(3-methyl-butoxy)-benzenesulfonyl]-piperidine-4-carboxylic acid hydroxyamide]		2.9 nM	7.2 nM	10000 nM		43%
CCC(CC)COc1ccc(S(=O)(=O)C2(C(=O)NO)CCN(Cc3ccccc3)CC2)cc1 [Example 259, 1-Benzyl4-[4-(2-ethyl-butoxy)-benzenesulfonyl]-piperidine-4-carboxylic acid hydroxyamide]		5.3 nM	14.3 nM	3160 nM		39%
CCCCOc1ccc(S(=O)(=O)C2(C(=O)NO)CCN(Cc3ccc(Cl)c(Cl)c3)CC2)cc1 [Example 263, 1-(3,4-Dichlorobenzyl)-4-(4-butoxy-benzenesulfonyl)-piperidine-4-carboxylic acid hydroxyamide]		5.2 nM	20.3 nM	3670 nM		57.7%
CN1CCC(C(=O)NO)(S(=O)(=O)c2ccc(OCc3ccc(Cl)cc3)cc2)CC1 [Example 264, [4-(4-Chloro-benzyloxy)benzenesulfonyl]-1-methylpiperidine-4-carboxylic acid hydroxamide]		3.1 nM	2.9 nM	4290 nM	182 nM	
CCCCOc1ccc(S(=O)(=O)C2(C(=O)NO)CCN(Cc3cccc(Oc4ccccc4)c3)CC2)cc1 [Example 265, 4-(4-Butoxy-benzenesulfonyl)-1-(3-phenoxy-benzyl)-piperidine-4-carboxylic acid hydroxamide]		7.8 nM	9.3 nM	1940 nM	1040 nM	
CCCCOc1ccc(S(=O)(=O)C2(C(=O)NO)CCN(Cc3ccc(C)cc3)CC2)cc1 [Example 267, 4-(4-Butoxy-benzenesulfonyl)-1-(4-methylbenzyl)-piperidine-4-carboxylic acid hydroxamide]		2.3 nM	5.4 nM	3620 nM	508 nM	
CCCCOc1ccc(S(=O)(=O)C2(C(=O)NO)CCN(Cc3ccc(C#N)cc3)CC2)cc1 [Example 268, 4-(4-Butoxy-benzenesulfonyl)-1-(4-cyano-benzyl)-piperidine-4-hydroxamide carboxylic acid hydroxamide]		1.1 nM	2.8 nM	2290 nM	278 nM	
CCCCOc1ccc(S(=O)(=O)C2(C(=O)NO)CCN(Cc3ccncc3)CC2)cc1 [Example 269, 4-(4-Butoxy-benzenesulfonyl)-1-pyridin-4-ylmethyl-piperidine-4-carboxylic acid hydroxamide]		1.4 nM	2.2 nM	2070 nM	296 nM	
